Results: patent US20080207738A1, “DRUG COMBINATIONS TO TREAT DRUG RESISTANT TUMORS” (priority 2007, published 2008)
Read-outs that look alike come from different tables or passages of the source.

Experiments:
MCF-7/ADR cells = assay: MTT cell viability, MCF-7/ADR cells; assay type: cell-based, human; conditions: 72 h; CCcompound104 5 μg/ml, EA 60 μM, CCcompound26/CCcompound3/CCcompound19 50 μM, alone or combined
Experimental: MCF/ADR cells were selected by incubating the parent MCF-7 with toxic concentrations (up to 10 μM) of adriamycin (doxorubicin). The selected drug resistant cells express both MDR1 and MRP1 among other molecular alterations as reviewed earlier [Kiss, Z., Tomono, M. and Anderson, W. B. (1994), “Phorbol ester selectively stimulates the phospholipase D-mediated hydrolysis of phosphatidylethanolamine in multidrug-resistant MCF-7 human breast carcinoma cells,” Biochem. J., 302, 649-654]. […] Ethacrynic acid (EA) alone, used at 60 μM concentration, decreased cell viability by about 24%, while CCcompound104 and EA in combination had 70% inhibitory effects (Table 7). In this cell line CCcompound104 and EA decreased cell viability synergistically.

CLL cells = assay: cells; conditions: Homo sapiens, CLL cell, 72 h, 72 h, CCcompound104 5 μg/ml, CCcompound26 1 μM, alone or combined
Experimental: Heparinized peripheral-blood samples were obtained from chronic lymphocytic leukemia patients with more than 70% malignant cells after informed consent, in accordance with the Declaration of Helsinki. The blood samples (10-ml) were diluted 1:1 with cold phosphate buffered saline (PBS; 0.135 M NaCl, 2.7 mM KCl, 1.5 mM KH2PO4, 8 mM Na2HPO4 [pH 7.4]) and layered onto Ficoll-Hypaque (8-ml, specific gravity, 1.086; Life Technologies, Grand Island, N.Y.). Then, the blood was centrifuged at 433 g for 20 min, and mononuclear cells were removed from the interphase. Cells were washed twice with cold PBS and after each centrifugation step the pelleted cells were resuspended in 10-ml RPMI 1640 supplemented with 10% fetal bovine serum (inactivated for 30 min at 56° C.). A Coulter channelyzer (Coulter Electronics, Hialeah, Fla.) was used to determine the cell number. Then the number of cells was adjusted to 1×10^7 cells per 1 ml before using them for the experiments.
(§1) For the determination of relative number of viable cells before and after treatments, in most cases the MTT assay was used. This calorimetric assay is based on the ability of living cells, but not dead cells, to reduce 3-(4, 5-dimethyl thiazol-2-yl)-2, 5-diphenyltetrazolium bromide [Carmichael, J, De Graff, W. G., Gazdar, A. F., Minna, J. D. and Mitchell, J. B. (1987), “Evaluation oftetrazolium-based semiautomated calorimetric assay: Assessment of chemosensitivity testing,” Cancer Res., 47, 936-942]. For this assay, cells were plated in 96-well plates (10,000-30,000 cells in case of cultured cells, 100,000 cells in case of healthy lymphocytes, and 200,000 cells in case of chronic lymphocytic leukemia or non-Hodgkin lymphocytes) in the respective incubation media. After a 24-h resting period, the cells were treated with the test agents and then incubated (in CO2 incubator under humidified atmosphere) for 72 hours (final incubation volume, 150 μl). The MTT assay was performed both with the untreated and treated cell cultures at the conclusion of the incubation. Often, the MTT assay also was performed at the start of treatments to allow assessment of proliferation rates in the control and treated cell cultures. All data presented are the average of 4 incubations (in 4 separate wells) with the same cell population.

[1] = test system: CaOV-3 human ovarian cancer cell line; assay: Cell viability, CaOV-3 cells; conditions: Caov-3, read-out: decrease in viability / inhibition
Excerpt: For the determination of relative number of viable cells before and after treatments, in most cases the MTT assay was used. This calorimetric assay is based on the ability of living cells, but not dead cells, to reduce 3-(4, 5-dimethyl thiazol-2-yl)-2, 5-diphenyltetrazolium bromide [Carmichael, J, De Graff, W. G., Gazdar, A. F., Minna, J. D. and Mitchell, J. B. (1987), “Evaluation oftetrazolium-based semiautomated calorimetric assay: Assessment of chemosensitivity testing,” Cancer Res., 47, 936-942]. For this assay, cells were plated in 96-well plates (10,000-30,000 cells in case of cultured cells, 100,000 cells in case of healthy lymphocytes, and 200,000 cells in case of chronic lymphocytic leukemia or non-Hodgkin lymphocytes) in the respective incubation media. After a 24-h resting period, the cells were treated with the test agents and then incubated (in CO2 incubator under humidified atmosphere) for 72 hours (final incubation volume, 150 μl). The MTT assay was performed both with the untreated and treated cell cultures at the conclusion of the incubation. Often, the MTT assay also was performed at the start of treatments to allow assessment of proliferation rates in the control and treated cell cultures. All data presented are the average of 4 incubations (in 4 separate wells) with the same cell population. […]

Solubility in water = assay type: physicochemical
Excerpt: In one embodiment, CCcompound104, CCcompound26 and EA may be administered orally. The two CC compounds are water-soluble, while EA is first dissolved in absolute ethanol and diluted in water or a suitable physiologically compatible liquid solvent. In one embodiment of the invention, the CC compounds and EA are in the form of a tablet, gel capsule, a liquid, or the like. In each case, the compounds are mixed with one or more carriers chosen by one having ordinary skill in the art to best suit the goal of treatment. In addition to the active compounds, the tablet or gel may contain any component that is presently used in the pharmaceutical field to ensure firmness, stability, solubility and appropriate taste. Any additional component of the tablet or gel will be chemically inert; i.e., it will not participate in a chemical reaction with the active compounds or the other additives. Each compound may be prepared for oral consumption separately, or the tablet, gel capsule or liquid may contain any of the two components or all three components. Tablets containing 25 mg or 50 mg of EA can be purchased from Merck.

[2] = test system: parent L5178 mouse T-cell lymphoma cells; assay: MTT cell viability, parent L5178 cells; conditions: Mus musculus, L5178, 72 h, read-out: Inhibition (%) of viability
Excerpt: as §1
Parent L5178 cells were seeded at 10,000 cells per well in 96-well plates and then incubated for 72 hours in the absence or presence of CCcompound104 (1 or 5 μg/ml) and various concentrations of CCcompound26 as indicated in Table 5.
Epirubicin, like doxorubicin and other antracyclins, is an MDR1 substrate. The goal of this experiment was to use epirubicin as a model compound to determine if in L5178/MDR1 cells CCcompound104 also can enhance the effects of MDR1 substrate anti-cancer agents other than CCcompound26 and other thioxanthene or thioxanthone CC compounds. The parent and MDR1 expressing cells were seeded at 30,000 cells per well in 96-well microplates and after a 24-h resting period treated with increasing concentrations of epirubicin n in the absence or presence of 5 μg/ml of CCcompound104 for 72 hours.

in vitro = conditions: human, decrease of viability of healthy lymphocytes
Excerpt: as §1
Peripheral lymphocytes are known to be very sensitive to chemotherapy and this sensitivity often limits the dose of chemotherapy that can be employed. In this series of experiments, the combined effects of CCcompound104 alone or in combination with CCcompound26 or CCcompound3 were determined on the viability of peripheral lymphocytes to establish doses that reduce cell viability less than 50%. As in previous experiments, the treatments were performed for 72 hours.

C=CC[N+](CC)(CC)CC/C=C1/c2ccccc2Sc2ccc(C)cc21.[Br-] [CCcompound26, N,N-Diethyl-N-allyl-3-(2-methyl-9H-thioxanthen-9-ylidene)-propan-1-aminiumbromide]
Inhibition (%) of viability (MCF-7/ADR cells): 24.3%
cytotoxicity at 1 µM (CLL cells; read-out: Inhibition (%) of viability, CLL patient 1): 3.5%
cytotoxicity at 1 µM (CLL cells; read-out: Inhibition (%) of viability, CLL patient 2): 15.8%
cytotoxicity at 1 µM (CLL cells; read-out: Inhibition (%) of viability, CLL patient 3): 66.6%
cytotoxicity at 1 µM (CLL cells; read-out: Inhibition (%) of viability, CLL patient 4): 46.2%
cytotoxicity at 1 µM (CLL cells; read-out: Inhibition (%) of viability, CLL patient 5): 10.8%
cytotoxicity at 1 µM (CLL cells; read-out: Inhibition (%) of viability, CLL patient 6): 20.9%
cytotoxicity at 1 µM (CLL cells; read-out: Inhibition (%) of viability, CLL patient 7): 1.8%
cytotoxicity at 1 µM (CLL cells; read-out: Inhibition (%) of viability, CLL patient 8): 9%
cytotoxicity at 1 µM (CLL cells; read-out: Inhibition (%) of viability, CLL patient 9): 9.2%
cytotoxicity at 1 µM (CLL cells; read-out: Inhibition (%) of viability, CLL patient 10): 40.7%
cytotoxicity at 1 µM (CLL cells; read-out: Inhibition (%) of viability, CLL patient 11): 48.1%
cytotoxicity at 1 µM (CLL cells; read-out: Inhibition (%) of viability, CLL patient 12): 30.4%
cytotoxicity at 1 µM (CLL cells; read-out: Inhibition (%) of viability, CLL patient 13): 42.8%
cytotoxicity at 1 µM (CLL cells; read-out: Inhibition (%) of viability, CLL patient 14): 72.7%
cytotoxicity at 1 µM (CLL cells; read-out: Inhibition (%) of viability, CLL patient 15): 1.6%
cytotoxicity at 1 µM (CLL cells; read-out: Inhibition (%) of viability, CLL patient 16): 50%
cytotoxicity at 1 µM (CLL cells; read-out: Inhibition (%) of viability, CLL patient 19): 22.5%
cytotoxicity at 1 µM (CLL cells; read-out: Inhibition (%) of viability, CLL patient 20): 0%
cytotoxicity at 12.5 µM [1]: < 15%
cytotoxicity at 25 µM [1]: < 45%
solubility in water (Solubility in water): water-soluble
cytotoxicity at 1.56 µM [2]: 55%
cytotoxicity at 3.12 µM [2]: 68%
cytotoxicity at 6.25 µM [2]: 80%
cytotoxicity at 72 h, 50 μM (in vitro): 100%
cytotoxicity at 72 h, 1 μM (in vitro; over 4 lymphocyte preparations): 3 to 13%
